pIC50: −log10 of the molar value.
Biological target: T1, recombinant human mPGES-1 (Homo sapiens, UniProt O14684)
T1 sequence (O14684 1-152): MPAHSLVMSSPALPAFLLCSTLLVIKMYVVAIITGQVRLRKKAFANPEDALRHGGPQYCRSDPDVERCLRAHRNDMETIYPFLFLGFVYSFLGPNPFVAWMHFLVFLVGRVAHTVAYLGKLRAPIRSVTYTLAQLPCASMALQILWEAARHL
Assay: Assay B: mPGES-1 enzyme assay (modified)
Type: biochemical
Settings: biological assay B (all other compounds); PGH2 final conc. 2 μM, HTRF; read-out: mPGES-1 inhibitory effect IC50
Procedure: Assay B: mPGES-1 Enzyme Assay (Modified)
The aim of this assay is to determine the affinity of a test compound for the mPGES-1 enzyme.
47 μl of recombinant human mPGES-1 (˜0.5 μg protein/well) containing microsomal suspension in a buffer containing GSH, (2.5 mmol/L L-Glutathione reduced, dissolved in 0.1 mol/L Phosphat Buffer pH 7.4) is dispensed in a 384-well plate and thereafter 1 μl of the test compound(s) is/are added and incubated for 25 minutes at room temperature. The enzyme reaction is started by the addition of 2 ul PGH2 (final conc. 2 μM) dissolved in water-free Diglyme. After 60 seconds the reaction is terminated by addition of a stop solution containing FeCl2 (10 μL 0.074 mol/l FeCl2). The samples are diluted between 1:25 in PBS (Phosphate Buffered Saline). 10 μl of the diluted samples are transferred to 384-well low volume plate. In order to quantify the amount of PGE2 that has been formed, a homogenous time resolved fluorescent (HTRF) detecting of PGE2 has been performed using a commercially available kit from Cisbio according to the manufactures recommendation. This HTRF-based assay has been described in detail (see: Goedken et al., J Biomol Screen, 2008, 13(7), 619-625). Briefly, the diluted samples are mixed with […] PGE2-d2 conjugate and 5 μl anti-PGE2 cryptate conjugate. After an incubation period of the plates over night, the fluorescence is measured by the use of an appropriate microplate reader.
The fluorescence of Europium cryptate (maxex=307 nm, maxem=620 nm) and d2-PGE2 (maxex=620 nm, maxem=665 nm) are measured.
The extent of the specific HTRF is measured as a ratio of the emission intensity at 665 nm vs. that at 620 nm at an excitation pulse of 320 nm. The quantification plate contains also wells with different concentrations of PGE2 as calibration curve for the calculation of the PGE2 concentrations from the HTRF ratio values.
From all mPGES enzyme assay the background is subtracted and the IC50 is calculated over a nonlinear regression with conventional software.

| SMILES | pIC50 |
| --- | --- |
| O=C(Nc1ccc(OCC(F)F)c(C(=O)Nc2ccc(Br)cc2)c1)c1cc(CNC(=O)C2CCCN2c2nccs2)ccc1Cl (centres unmarked) [Example 164] | 7.10 |
| CC(C)(C(=O)NCc1ccc(Cl)c(C(=O)Nc2ccc(OCC(F)F)c(C(=O)Nc3ccc(F)c(Cl)c3)c2)c1Cl)C(F)(F)F [Example 145, N-[4-(2,2-difluoroethyl)oxy-3-(4-fluoro-3-chlorophenyl)aminocarbonyl-phenyl]-2,6-dichloro-3-[(2,2,2-trifluoro-1,1-dimethyl-ethyl)carbonylamino]methyl-benzamide] | 8.00 |
| CC(C)NC(=O)c1cc(NC(=O)c2cc(CNC(=O)C(C)(C)C(F)(F)F)ccc2Cl)ccc1OCC(F)F [Example 110] | 7.77 |
| CC(C)(C)C(=O)NCc1ccc(Cl)c(C(=O)Nc2cnc(OCC(F)F)c(C(=O)Nc3ccc(Cl)c(F)c3)c2)c1Cl [Example 76] | 7.92 |
| CC(C)(C(=O)NCc1ccc(Cl)c(C(=O)Nc2ccc(OCC(F)F)c(C(=O)NCC(F)(F)C(F)(F)F)c2)c1)C(F)(F)F [Example 114] | 8.00 |
| COC(C)(C)C(=O)NCc1ccc(Cl)c(C(=O)Nc2ccc(OCC(F)F)c(C(=O)Nc3ccc(Br)cc3)c2)c1 [Example 160] | 8.15 |
| CN1CCC[C@H]1C(=O)NCc1ccc(Cl)c(C(=O)Nc2ccc(OCC(F)F)c(C(=O)Nc3ccc(Br)cc3)c2)c1 [Example 161] | 7.89 |
| CC(C)(C(=O)NCc1ccc(Cl)c(C(=O)Nc2ccc(OCC(F)F)c(C(=O)Nc3ncc(Cl)s3)c2)c1)C(F)(F)F [Example 83] | 8.15 |
| CC(C)(C(=O)NCc1ccc(Cl)c(C(=O)Nc2ccc(OCC(F)F)c(C(=O)Nc3cc(C(F)(F)F)ccn3)c2)c1)C(F)(F)F [Example 109] | 7.89 |
| CC(C)(C(=O)NCc1ccc(Cl)c(C(=O)Nc2ccc(OCC(F)F)c(C(=O)Nc3cc(Cl)c4cc[nH]c4c3)c2)c1)C(F)(F)F [Example 144] | 8.15 |
| CC1(NC(=O)c2cc(NC(=O)c3c(Cl)ccc(CNC(=O)C(C)(C)C(F)(F)F)c3Cl)ccc2OCC(F)F)CCOCC1 [Example 155] | 6.82 |
| CC(C)(C(=O)NCc1ccc(Cl)c(C(=O)Nc2ccc(OCC(F)F)c(C(=O)NCC(F)(F)F)c2)c1Cl)C(F)(F)F [Example 147] | 8.10 |
| CC(C)(C)C(=O)NCc1ccc(F)c(C(=O)Nc2cnc(OCC(F)F)c(C(=O)Nc3ccc(Br)cc3)c2)c1F [Example 74] | 7.33 |
| Cc1nc(C(=O)NCc2ccc(Cl)c(C(=O)Nc3ccc(OCC(F)F)c(C(=O)Nc4ccc(Br)cc4)c3)c2)c(C)s1 [Example 168] | 6.98 |
| CC(C)(C(=O)NCc1ccc(Cl)c(C(=O)Nc2ccc(OCC(F)F)c(C(=O)Nc3ccncc3Cl)c2)c1)C(F)(F)F [Example 137] | 8.05 |
| CC(C)(C(=O)NCc1ccc(Cl)c(C(=O)Nc2ccc(OCC(F)F)c(C(=O)NC3CCC4(CC3)CC4)c2)c1)C(F)(F)F [Example 136] | 8.15 |
| CC(C)(C(=O)NCc1ccc(Cl)c(C(=O)Nc2ccc(OCC(F)F)c(C(=O)NCC3CC3)c2)c1)C(F)(F)F [Example 95] | 8.10 |
| CC(NC(=O)c1cc(NC(=O)c2cc(CNC(=O)C(C)(C)C(F)(F)F)ccc2Cl)ccc1OCC(F)F)C1CC1 (centres unmarked) [Example 135] | 8.15 |
| CC(O)(C(=O)NCc1ccc(Cl)c(C(=O)Nc2ccc(OCC(F)F)c(C(=O)Nc3ccc(Br)cc3)c2)c1)C(F)(F)F (centres unmarked) [Example 166] | 8.10 |
| CC(C)(C(=O)NCc1ccc(Cl)c(C(=O)Nc2ccc(OCC(F)F)c(C(=O)NCC3CCCOC3)c2)c1)C(F)(F)F (centres unmarked) [Example 98] | 7.37 |
| CC(C)(C(=O)NCc1ccc(Cl)c(C(=O)Nc2ccc(OCC(F)F)c(C(=O)NCCC(F)(F)F)c2)c1)C(F)(F)F [Example 115] | 7.82 |
| CC(C)(C(=O)NCc1ccc(Cl)c(C(=O)Nc2ccc(OCC(F)F)c(C(=O)NC3CCC3)c2)c1)C(F)(F)F [Example 122] | 8.15 |
| O=C(Nc1ccc(Br)cc1)c1cc(NC(=O)c2c(F)ccc(CNC(=O)C(F)(F)F)c2Cl)ccc1OCC(F)F [Example 43, N-[4-(2,2-Difluoroethyl)oxy-3-(4-bromophenyl)aminocarbonyl-phenyl]-6-fluor-2-chlor-3-(trifluormethylcarbonylamino)methyl-benzamide] | 6.92 |
| CC(C)(C)C(=O)NCc1ccc(Cl)c(C(=O)Nc2cnc(OCC(F)F)c(C(=O)Nc3cc(F)cc(Cl)c3)c2)c1Cl [Example 75, N-[2-(2,2-Difluoroethoxy)-3-(3-chloro-5-fluorophenyl)aminocarbonyl-pyridin-5-yl]-2,6-dichloro-5-(tert-butylcarbonylamino)methyl-benzamide] | 8.22 |
| CC(C(=O)NCc1ccc(Cl)c(C(=O)Nc2ccc(OCC(F)F)c(C(=O)Nc3ccc(Br)cc3)c2)c1)N1CCCC1 (centres unmarked) [Example 170] | 7.30 |
| CC(C)(C(=O)NCc1ccc(Cl)c(C(=O)Nc2ccc(OCC(F)F)c(C(=O)NCc3ccc(C(F)(F)F)cc3)c2)c1)C(F)(F)F [Example 104] | 8.00 |

Now from value to molecule:

| pIC50 | SMILES |
| --- | --- |
| 8.30 | CC(C)(C)C(=O)NCc1ccc(Cl)c(C(=O)Nc2ccc(N3CCC(F)CC3)c(C(=O)Nc3ccc(Br)cc3)c2)c1Cl [Example 61] |
| 8.30 | CC(C)(C(=O)NCc1ccc(Cl)c(C(=O)Nc2ccc(N3CCC(C(F)(F)F)CC3)c(C(=O)NCC3CC3)c2)c1Cl)C(F)(F)F [Example 59, N-[4-(4-Trifluoromethyl-piperidin-1-yl)-3-(cyclopropylmethyl)aminocarbonyl-phenyl]-2,6-dichloro-3-[(2,2,2-trifluoro-1,1-dimethyl-ethyl)carbonylamino]methyl-benzamide] |
| 8.30 | CC(C)(C)C1CCC(NC(=O)c2cc(NC(=O)c3cc(CNC(=O)C(C)(C)C(F)(F)F)ccc3Cl)ccc2OCC(F)F)CC1 (centres unmarked) [Example 87] |
| 8.70 | CC(C)(C(=O)NCc1ccc(Cl)c(C(=O)Nc2ccc(OCC(F)F)c(C(=O)Nc3cccc(Cl)c3)c2)c1Cl)C(F)(F)F [Example 150] |
| 9.00 | CC(C)(C(=O)NCc1ccc(Cl)c(C(=O)Nc2ccc(OCC(F)F)c(C(=O)Nc3cc(F)cc(Cl)c3)c2)c1Cl)C(F)(F)F [Example 151] |
| 8.40 | CC(C)(C(=O)NCc1ccc(Cl)c(C(=O)Nc2ccc(OCC(F)F)c(C(=O)Nc3cc(F)cc(Cl)c3)c2)c1)C(F)(F)F [Example 113] |
| 8.40 | COCCOc1ccc(NC(=O)c2cc(CNC(=O)C(C)(C)C(F)(F)F)ccc2Cl)cc1C(=O)N[C@H]1CC[C@H](C(F)(F)F)CC1 [Example 64] |
| 8.30 | CC(C)(C(=O)NCc1ccc(Cl)c(C(=O)Nc2ccc(OC3CCOC3)c(C(=O)N[C@H]3CC[C@H](C(F)(F)F)CC3)c2)c1)C(F)(F)F (some centres unmarked) [Example 67] |
| 8.30 | COCCOc1ccc(NC(=O)c2cc(CNC(=O)C(C)(C)C)ccc2Cl)cc1C(=O)Nc1ccc(Br)cc1 [Example 70] |
| 8.30 | CC(C)(C(=O)NCc1ccc(Cl)c(C(=O)Nc2ccc(OCC(F)F)c(C(=O)Nc3ccc(Cl)c(Cl)c3)c2)c1)C(F)(F)F [Example 125] |
| 9.00 | CC(C)(C(=O)NCc1ccc(Cl)c(C(=O)Nc2ccc(OCC(F)F)c(C(=O)Nc3ccc(Cl)c(F)c3)c2)c1Cl)C(F)(F)F [Example 156] |
| 8.22 | CC1(C(=O)NCc2ccc(Cl)c(C(=O)Nc3ccc(OCC(F)F)c(C(=O)Nc4ccc(Br)cc4)c3)c2)CCCO1 (centres unmarked) [Example 163] |
| 8.70 | COc1cc(Cl)ccc1NC(=O)c1cc(NC(=O)c2c(Cl)ccc(CNC(=O)C(C)(C)C(F)(F)F)c2Cl)ccc1OCC(F)F [Example 158] |
| 8.22 | CC(C)(O)C(=O)NCc1ccc(Cl)c(C(=O)Nc2ccc(OCC(F)F)c(C(=O)Nc3ccc(Br)cc3)c2)c1 [Example 172] |
| 8.30 | CC(C)(C)C(=O)NCc1ccc(Cl)c(C(=O)Nc2ccc(OC3CCOC3)c(C(=O)Nc3ccc(Br)cc3)c2)c1 (centres unmarked) [Example 66, N-[4-(Tetrahydrofuran-3-yloxy)-3-(4-bromophenyl)aminocarbonyl-phenyl]-2-chloro-5-(tert-butyl-carbonylaminomethyl)-benzamide] |
| 8.22 | CC(C)(C(=O)NCc1ccc(Cl)c(C(=O)Nc2ccc(OCC(F)F)c(C(=O)Nc3ccc(F)cc3Cl)c2)c1)C(F)(F)F [Example 116] |
| 8.40 | CC(C)(C(=O)NCc1ccc(Cl)c(C(=O)Nc2ccc(OCC(F)F)c(C(=O)Nc3ccc(Cl)c(C(F)(F)F)c3)c2)c1)C(F)(F)F [Example 126] |
| 8.40 | CC(C)(C)C(=O)NCc1ccc(Cl)c(C(=O)Nc2ccc(OCC(F)F)c(C(=O)Nc3ccc(Br)cc3)c2)c1F [Example 45, N-[4-(2,2-Difluoroethyl)oxy-3-(4-bromophenyl)aminocarbonyl-phenyl]-6-chlor-2-fluor-3-(tert-butylcarbonylamino)methyl-benzamide] |
